Measured values taken from article PMC10399118, “Detection of endogenous NPY release determined by novel GRAB sensor in cultured cortical neurons” (Frontiers in Cellular Neuroscience, 2023).
Where two headings read alike, the source gives them in different places.

Legend:
[1] = system: GRAB NPY1.0 sensor; experiment: GRAB NPY1.0 sensor live-cell fluorescence imaging in cultured cortical neurons; assay type: cell-based, mouse
Procedure: Cortex was isolated from postnatal day 1–2 (P1-P2) mice (C57Bl/6, Charles River, Germany), and the meninges were removed in ice-cold dissection media containing 10% 10xHBSS (Gibco, Scotland, #14065056), 1% P/S, 1% sodium pyruvate (Gibco, Scotland, #11360070), 1% 1M HEPES (Gibco, Scotland), and 1.2% 45% glucose (Sigma-Aldrich, Germany). The cortices were cut into smaller pieces and incubated for 20–30 min at 37°C in papain solution containing 20 units/mL papain (Worthington Biochemical, #LS003126), 1mM L-cysteine (Sigma-Aldrich, Germany, #C7352), 1.9 mM CaCl2 (Sigma-Aldrich, Germany), 0.5 mM Kynurenic acid (Sigma-Aldrich, Germany, #K3375), pH adjusted to 7.4 with HCl and oxygenated with 95% O2 and 5% CO2. After incubation, the tissue was washed 3 times with Neurobasal A media and carefully triturated 3–5 times with a glass Pasteur pipette with a fire-polished tip. The dissociated cortical neurons were plated at a density of 100,000 or 150,000 cells/well onto the glia monolayered 18- or 25-mm coverslips, respectively, and grown in Neurobasal A media containing 1% Glutamax, 2% B-27, and 0.1% P/S. The day after seeding the neurons, half of the media was changed to remove any cell debris. Every 3–4 days, 1/4 of the media in the wells was removed and replaced with double of the removed volume of fresh neuronal media. The use of experimental animals was conducted in concordance with the Danish Research Ethical Committee for Experimental Animals (ethical permit #2017-15-0202-00092; PI: Andreas Toft Sørensen).
The following AAV vectors were used for experiments: GRAB NPY1.0 sensor (AAV2/9-hSyn-GRAB_NPY1.0; 6E+12−4.7E+13 vg/ml, 1 μL/well); sRGECO calcium sensor (AAV2/8-Ef1a-sRGECO-WPRE; Addgene plasmid #137125; RRID:Addgene_137125; 2.2E+13 vg/ml, 0.2 μL/well) ([Fenno et al., 2020]); NPY1-36 vector (AAV2/8-hSyn-PreproNPY-WPREpA; full-length peptide incl. CPON; produced in-house; 7.8E+12 vg/ml, 0.5 μL/well) ([Soud et al., 2019]). Primary cultures were transduced after 2–3 DIV and given […] to assure robust expression before being used for live-cell imaging.
Neurons were continuously perfused with artificial cerebrospinal fluid (aCSF) [120 mM NaCl, 5 mM KCl, 2 mM CaCl2, 2 mM MgCl2, 25 mM HEPES, and 30 mM D-glucose] at pH 7.4 and 32°C for all live imaging experiments. An RC-21BDW microscope flow chamber (Warner Instruments, Hamden, CT, USA) was used to hold the coverslips and to apply a flow of different aCSF and drug buffers during imaging at 20× with a Nikon Eclipse Ti microscope connected to two EM-CCD cameras (iXon3 897, Andor). A NIS-Elements software (Nikon, Tokyo, Japan) was used for recordings. GRAB NPY1.0 and sRGECO biosensors were excited with 488 nm and 561 nm laser lines (LED sapphire laser; Coherent Inc., Santa Clara, CA, USA), respectively. For the 488 nm LED laser excitation, a 491 nm mirror, and a 475/35 nm band-pass filter were used, while a 525/50 nm band-pass filter (AHF Analysentechnik, Tübingen-Pfrondorf, Germany) was used to detect emitted light. For the 561 nm LED laser excitation, a 561 nm mirror, and a 560/40 nm band-pass filter were used, while a 630/75 nm band-pass filter (AHF Analysentechnik, Tübingen-Pfrondorf, Germany) was used to detect emitted light. The collected images were recorded either at a frame rate of 1 frame/second when recording GRAB NPY1.0 alone or 4 frames/second when the sRGECO signal was also recorded. All recordings were performed using epifluorescence microscopy.
(§1) Epifluorescence imaging was conducted under constant slow perfusion of aCSF buffers at a flow rate of approximately 1 ml/min. To induce neuronal activity, bicuculline (Bic; 50 μM; 14340, Sigma-Aldrich, Germany; dissolved in DMSO) and 4-aminopyridine (4-AP; 250 μM; 275875, Sigma-Aldrich, Germany; dissolved in Milli-Q water) was added together with aCSF, which was carefully measured after adding the compounds to confirm a pH of 7.4. […]

[2] = system: cultured cortical neurons; experiment: sRGECO calcium sensor imaging of neuronal activity in cultured cortical neurons; assay type: cell-based, mouse
Procedure: Cortex was isolated from postnatal day 1–2 (P1-P2) mice (C57Bl/6, Charles River, Germany), and the meninges were removed in ice-cold dissection media containing 10% 10xHBSS (Gibco, Scotland, #14065056), 1% P/S, 1% sodium pyruvate (Gibco, Scotland, #11360070), 1% 1M HEPES (Gibco, Scotland), and 1.2% 45% glucose (Sigma-Aldrich, Germany). […]
Neurons were continuously perfused with artificial cerebrospinal fluid (aCSF) [120 mM NaCl, 5 mM KCl, 2 mM CaCl2, 2 mM MgCl2, 25 mM HEPES, and 30 mM D-glucose] at pH 7.4 and 32°C for all live imaging experiments. […] The collected images were recorded either at a frame rate of 1 frame/second when recording GRAB NPY1.0 alone or 4 frames/second when the sRGECO signal was also recorded. […]
as §1

[3] = system: GRAB NPY1.0 sensor; settings: ref Wang et al., 2022, read-out: EC50 of GRAB NPY1.0 sensor response, cited from earlier work
Excerpt: Here, we report on the usage of the GRAB NPY1.0 sensor in mouse-cultured cortical neurons and address the question: can the sensor detect the release of endogenous NPY? This sensor, recently developed in the Yulong Li laboratory, Peking University of China, is one of six neuropeptide-based GRAB sensors engineered for detecting either SST, CCK, CRF, NTS, VIP or NPY ([Wang et al., 2022]). While it was shown that the SST, CCK, and CRF sensors can detect endogenously released neuropeptides ([Wang et al., 2022]), similar information is lacking on the NPY1.0 sensor. In our setup, we tested the NPY1. ...

[4] = transgene NPY cultures, BIBO3304 applied during Bic + 4-AP

Compound | change of GRAB NPY1.0 fluorescence signal at baseline conditions ([1]; BIBO3304 1 μM applied at baseline, n = 90 neurons from 2 coverslips) | change of GRAB NPY1.0 fluorescence when added during Bic + 4-AP ([1]; NPY transgene (AAV-NPY) cortical cultures, BIBO3304 1 μM added to Bic 50 μM + 4-AP 250 μM, n = 128 neurons from 6 coverslips) | effect on GRAB NPY1.0 signal of cluster A during Bic + 4-AP [1, 4] | effect on GRAB NPY1.0 signal of clusters B and C during Bic + 4-AP [1, 4] | effect on high-frequency activity induced by Bic + 4-AP (sRGECO signal) ([2]; BIBO3304 applied to the cultures) | neurons expressing the GRAB NPY1.0 sensor that remained unresponsive ([1]; 1 μM exogenous NPY, naive mouse cortical cultures, 174 neurons from 9 coverslips) | EC50 ([1]; mouse cultured cortical neurons expressing GRAB NPY1.0, exogenous NPY1-36 0.3, 1, 30, 1000 nM in aCSF with 1% BSA, pH 7.4, 32°C, mean ΔF/F0, three-parameter fit, n = 130 neurons from 5 coverslips, read-out: EC50 of GRAB NPY1.0 fluorescence response (normalized dose-response curve)) | change of sRGECO fluorescent signal (neuronal activity) during continuous Bic + 4-AP perfusion ([2]; exogenous NPY added to primary cultures during Bic + 4-AP) | EC50 ([3]; HEK293T cells stably expressing the NPY1.0 sensor) | EC50 ([3]; rat cortical neurons transduced by a similar AAV9 vector with human synapsin promoter)
NC(=O)NCc1ccc(CNC(=O)[C@@H](CCCN=C(N)N)NC(=O)C(c2ccccc2)c2ccccc2)cc1 [BIBO3304] | remained unchanged | significant drop in fluorescence | not affected | significantly reduced | not per se affected |  |  |  |  | 
Neuropeptide Y [NPY] |  |  |  |  |  | 8 out of 174 | 38 nM | marked decrease | 40 nM | 0.7 nM
